Results taken from patent US20090179638A1, “ASSAY FOR IDENTIFYING INHIBITORS OF NEURONAL APOPTOTIC PATHWAYS” (AEGERA THERAPEUTICS INC., priority 2006, published 2009).
Entries after “also recorded” stand apart in the source; their conditions may differ.

Assays:
[1] = system: JNK; assay: Endogenous phosphorylation of GST-c-Jun in PC12rtTA cells; type: cell-based; details: for expression of the GST-c-Jun fusion construct: PC12rtTA cells
Procedure: FIGS. 7A, 7B and 7C are photographs of Western blots which illustrate that compound 1 analogues inhibit JNK activation and induce expression of HSP70. A: PC12^rtTA cells were transfected with RNAi directed against HSP70 or with control RNA and then 24 hours later were infected with 5 MOI of AdNRG or 50 MOI of the control virus AdLacZ. At time of infection, the cells were treated with 40 μM compound 2 or with a vehicle control, as indicated. After 30 hours, cells were lysed, normalized for protein levels, and analyzed for phosphorylated Jun, HSP70, HSP25 NRAGE and actin levels. B: PC12^rtTA cells were transfected with an expression construct driving GST-Jun. After 24 hours, cells were infected with 5 MOI of AdNRG or 50 MOI of the control virus AdLacZ or were left uninfected. After a further 24 hours, uninfected cells were left untreated or were exposed to 10 ng/ml TNF or 300 mM sorbitol for 15 minutes. Cells were then lysed, normalized for protein levels, and GST-jun was recovered by glutathione pullout and analyzed for phosphorylation using a antibody directed against c-Jun pSer63 by immunoblotting. Equivalent pullout of GST-Jun was confirmed by immunoblotting with an antibody directed against c-Jun and GST. C: PC12^rtTA cells were co-transfected with an expression construct driving GST-Jun and with RNAi directed against HSP70 or with control RNA, as indicated. After 24 hours, cells were infected with 5 MOI of AdNRG or 50 MOI of the control virus AdLacZ. At time of infection, the cells were treated with 40 μM compound 2 or with a vehicle control, as indicated. After 30 hours, cells were lysed, normalized for protein levels, and GST-jun was recovered by glutathione pullout and analyzed for phosphorylation using an antibody directed against c-Jun pSer63 by immunoblotting. Equivalent pullout of GST-Jun was confirmed by immunoblotting with an antibody directed against total Jun. Lysates levels of HSP70, HSP25, HSP40, NRAGE and actin was determined by immunoblot. […]
A causal link between HSP70 induction and JNK suppression, circumventing the problem of low-transfection efficiency of the PC12rtTA cells, was developed to assess JNK pathway activation specifically in the RNAi transfected subpopulation of PC12rtTA cells. […] We anticipated that the GST-c-Jun fusion protein would be readily recoverable from lysates and its phosphostatus would provide a sensitive read-out that reflects the level of JNK pathway activation in the subpopulation of cells which were transfected. […] GST-c-Jun was then recovered from lysates and its phosphostatus determined by immunoblotting. […] Thus, the phosphostatus of the GST-jun fusion protein provided a sensitive read-out that reflects the level of JNK pathway activation in transfected cells. […]

[2] = system: JNK; assay: NRAGE- and p75NTR-induced JNK activation in PC12rtTA cells (c-Jun phosphorylation, caspase-3 cleavage, immunoblot); type: cell-based; details: for c-Jun phosphorylation: AdNRG infected, 30 hours (FIG. 6C)
Procedure: FIGS. 2C and 2D are photographs of Western blots which illustrate that compound 1 inhibits NRAGE- and p75NTR-induced JNK activation. C, D: Compound 1 inhibits NRAGE- and p75NTR-induced JNK activation. PC12^rtTA cells were infected with AdNRG at 5 MOI (C), with Adp75 at 50 MOI (D), or with AdLacZ at an equivalent MOI for each experiment, as indicated. At time of infection, the cells were treated with increasing concentrations of compound 1, or with vehicle alone, as indicated. […] Experiments in Panel A-D were performed three times with essentially identical results.
Activation of JNK activity is necessary for the induction of p75NTR- or NRAGE-initiated caspase cleavage and cell death (Bhakar et al., 2003; Salehi et al., 2002). Therefore, the effect of compound 1 on the activity of JNK was assessed by analyzing alterations in the phosphorylation level of the JNK target, c-Jun, and the cleavage status of caspase-3. […] Thus, the suppression of JNK signaling and caspase-3 cleavage mediated by compound 1 occurred with a dose-dependency similar to the anti-apoptotic activity of compound 1.
(§1) Cell culture, infection, transfection and immunoblotting. Sympathetic neurons were maintained and deprived of NGF as previously described (Bamji et al., 1998; Ma et al., 1992). PC12^rtTA cells were maintained and infected as previously described (Majdan et al., 1997; Salehi et al., 2002); for NRAGE, […] doxycycline was added to all plates at time of infection. Wildtype and HSF1 nullizygous immortalized mouse embryonic fibroblasts (MEFs) were maintained in DMEM containing 10% fetal calf serum, 1 μM β-mercaptoethanol, 1% non-essential amino acids, 1% L-glutamine, 1% antimycotic solution and 1% sodium pyruvate (all from GibcoBRL). Sympathetic neuron survival was assessed using the MTS assay according to the manufacturer's instructions (Promega). Analysis of PC12 cell death was determined using a lactate dehydrogenase (LDH) assay (Roche) as per the manufacturer's instructions. Transfections using plasmids or RNAi were performed using Lipofectamine 2000. Immunoblotting was performed as previously described (Majdan et al., 1997; Salehi et al., 2002).

[3] = system: SCG neurons; assay: NGF-withdrawal induced cell death of SCG neurons (MTS assay); type: cell-based, rat; details: SCG neurons withdrawn from NGF, 48 hours
Procedure: FIG. 1 is a graph showing that compound 1 inhibits NGF-withdrawal induced cell death. Cultures of rat SCG neurons (see Materials and Methods) initially maintained in 10 ng/ml of NGF were withdrawn from NGF and maintained in media containing compound 1 at the concentrations indicated for 48 hours. Cellular viability was assayed using an MTS assay. (*=P<0.01 relative to no compound 1). Experiments were performed three times with identical results.
Survival of neonatal primary sympathetic neurons is dependent on trophic support provided by Neuronal Growth Factor (NGF) (reviewed in (Young et al., 2004)).
as §1

Compound | ability to block GST-jun phosphorylation ([1]; 40 μM, RNAi directed against HSP70) | AdNRG-induced phosphorylation of GST-c-Jun ([1]; 40 μM, control siRNA) | expression of the GST-c-Jun fusion construct [1] | c-Jun phosphorylation ([2]; 40 μM) | protection from NGF-withdrawal induced cell death [3] | c-Jun phosphorylation and caspase-3 cleavage ([2]; 10 μM, AdNRG infected cells) | decrease in c-Jun phosphorylation and caspase-3 cleavage ([2]; 40 μM, AdNRG infected cells) | ability to block c-jun phosphorylation in cells transfected with HSP70 RNAi ([2]; HSP70 siRNA transfected PC12rtTA cells) | JNK inhibitory effects ([2]; extended (24 hour) incubation, 40 μM) | JNK inhibitory effects ([2]; short term (1 hr) incubation, 40 μM)
NS(=O)(=O)c1nn2cc(-c3ccc(N4CCOCC4)cc3)nc2s1 [Compound 2] | almost completely lost | strongly inhibited | without altering | reducing | protected | – | – | – | – | –
NS(=O)(=O)c1nn2cc(-c3ccccc3)nc2s1 [Compound 1] | – | – | significantly increased | reducing | protected; also recorded: inhibits | significant decrease | virtually complete | small but consistent attenuation | occurred | not short term
